Like-named read-outs stand apart in the source and are kept apart here.
Key:
[1] = tested on: STZ-induced diabetic mice; conditions: intraperitoneal, intrahepatic islets, in words; cited from earlier work
pig lungs = conditions: 2 mg/ml; HAR after 30 min without; cited from earlier work
[2] = cited from earlier work
[3] = tested on: API graft in diabetic athymic mice; conditions: implantation site liver, i.v. treatment, n = 5; duration of normoglycemia
Method: Diabetes was induced in athymic mice by intravenous (i.v.) injection of steptozotocin from Sigma Chemicals (Palo Alto, Calif., USA) according to Wennberg et al.. The steptozotocin dose was 250 mg/kg body weight for the athymic mice. An animal was considered diabetic if its blood glucose (B-glucose) level exceeded 20 mmol/l (>360 mg/dl) for 2 or more consecutive days.
(§1) After being cultured for 4 days, 5 μl of API (˜5000 IEQs) from five isolations were transplanted into the liver via the portal vein of 11 male inbred diabetic athymic mice, which were anesthetized during surgery with isoflurene. […] Six (untreated) mice were injected with an equivalent volume of saline in the same manner.
Blood glucose levels were measured in blood obtained from tails of recipients using a Glucometer Elite® B-glucose measuring instrument (Bayer AB, Gothenburg, Sweden). Measurements were taken daily before 12 am and expressed as mmol/l (1 mmol/l≈18 mg/dl). Loss of graft function was considered to have occurred if B-glucose levels exceeded 11.1 mmol/l (>200 mg/dl) for 2 or more consecutive days. Post-transplant duration of normoglycemia (<200 mg/dl) was defined as the graft survival period.

[4] = tested on: porcine islets transplanted into diabetic athymic mice
Method: as §1
(§2) Islets were sectioned and subsequently stained with horseradish peroxidase (HRP) conjugated mouse anti-human CD41a (R&D Systems, Abigdon, UK) and anti-CD11b^+ (Clone 2LPM 19c, DAKO, Carpinteria, Calif., USA). In the in vivo study, the API-containing mouse livers were retrieved 10 days after transplantation and snap-frozen in isopentane. The samples were sectioned and stained with guinea pig anti-insulin (DAKA, Carpinteria, Calif., USA) and rat anti-mouse CD11b^+ (Serotec Ltd. Scandinavia, Oslo, Norway).

complement system = conditions: FIG. 3, in words
Method: At 5, 10, 15, 30, 45, and 60 min after serum incubation at 37° C., 100 μl of serum was transferred to tubes containing 10 mM EDTA. These samples were stored at −70° C. before analysis of the complement components C3a and sC5b-9.
Filled bars represent generation of C3a and unfilled correspond to sC5b-9.

[5] = tested on: IBMIR triggered by API in fresh human blood
Method: (§3) This protocol is basically performed as previously described with some modifications. In general words, loops made of PVC (diameter 6.3 mm, length 390 mm), whose inner surface was furnished with immobilized heparin, were used. The tubing was held together with a specially designed heparinized connector. A circular loop was formed when the ends of the connector were tightly pushed into the lumen of the tubing ends. A rocking apparatus, placed in a 37° C. incubator, was used to generate blood flow inside the loops. The loops were rocked at a setting that prevented the blood from coming in contact with the connectors.
(§4) Seven 60-min islet experiments were performed, using API isolated from four different pigs. […] For each experiment, one loop containing fresh human blood and saline without API was included as a control. […] Concurrently, pre-incubation of human blood with 1 mg/ml of LMW-dextran, which was not sulfated, was tested in five experiments. In each experiment, 7 ml of fresh human blood from the same donor was added to each loop. […] Thereafter, the loops were opened, and 100 μl of saline with or without 5 μl of API (approximately 5,000 IEQ) was added to the loops and followed by another 60-min incubation on the rocking device at 37° C. Blood glucose levels were measured with a glucometer (Glucometer Elite; Bayer Diagnostics, Leverkusen, Germany) before the perfusion.
After every perfusion, the loop contents were filtered through 70 μm-diameter filters (Filcons, Cuptype; DAKO, Denmark). Both macroscopic blood clots and tissue recovered on the filters were snap-frozen in isopentane for immunohistochemical staining. The remaining filtered blood was collected in 4.1 mM EDTA (final concentration) and used for hematological analysis (platelets, lymphocytes, monocytes, and granulocytes) and assays of coagulation activation (thrombin-antithrombin [TAT], factor XIa-antithrombin complexes [FXIa-AT], and factor XIIa-antithrombin complexes [FXIIa-AT]), fibrinolysis activation (plasmin-alpha 2 antiplasmin complexes [PAP]), complement activation (C3a and sC5b-9), and C1 esterase inhibitor activation (factor XIa-C1 esterase inhibitor [FXIa-C1 INH], factor XIIa-C1 esterase inhibitor [FXIIa-C1 INH]). Samples taken at 0, 15, and 30 min were also analyzed. In 0-min samples, the blood was not added to the tubing loop but was instead transferred immediately to the EDTA-containing tubes. The blood samples were centrifuged at 4° C. at 3290×g for 20 min, and the plasma was collected and stored at −70° C. until analyzed.
Platelet counts and differential leukocyte counts were analyzed on a Coulter ACT-diff analyzer (Beckman Coulter, Fla., USA) using EDTA-treated blood. TAT and PAP were quantified using commercially available enzyme immunoassays (EIA) kits (Enzygnost TAT, Behringswerke, Marburg, Germany; Imuclone® PAP, American Diagnostica Inc., Greenwich, USA). FXIa-AT, FXIIa-AT, FXIa-C1 INH, and FXIIa-C1 INH were analyzed according to the method of Sanchez et al.. C3a was analyzed as previously described by Nilsson Ekdahl et al., and sC5b-9 was analyzed using a modification of the EIA described by Mollnes et al..

[6] = tested on: porcine islets perfused with human blood
Method: as §3, §4, §2

[7] = tested on: clot formation induced by API in human blood; conditions: for Clot formation / clotting time versus no additives: 0.01 and 0.1 mg/ml, in words
Method: Blood was drawn from four healthy volunteers into Vacutainer™ tubes containing citrate. Whole blood (980 μl) was incubated with 2 μl of API at 37° C. in polypropylene sample cups in a ReoRox™ rheometer (Global Haemostasis International, Gothenburg, Sweden). […] Every 6 s, the cup was set into free torsional oscillation around its vertical axis, and the damping and frequency of the oscillation was registered. Clotting time was identified as the point of maximal damping.

[8] = tested on: Porcine aortic endothelial cells; conditions: 25 mg/ml, in words; cited from earlier work
[9] = continuous injection about 45 mg/hour, in words
[10] = Table 4 comparison, 60 min API perfusion, 1 mg/ml, n = 5
[11] = after 60 min perfusion, API with 0.01 mg/ml, n = 7
[12] = after 60 min perfusion, API with 0.1 mg/ml, n = 7
[13] = after 60 min perfusion, API with 1 mg/ml, n = 7

dextran sulfate
Effect of dextran sulfate alone on hyperglycemia [1]: some beneficial effect in a few mice
Lung survival (pig lungs): about 200 min

dextran sulfate [dextran sulfate (MW 8 000 Da)]
Blood concentration ([2]; continuous injection about 45 mg/hour for 2-3 weeks): approximately 0.01 mg/ml
Alopecia [2, 9]: reported in about half of the patients
Thrombocytopenia [2, 9]: observed after 3 days treatment

Low molecular weight dextran sulfate [LMW-DS]
Mean graft survival [3]: 8.8 ± 1.9 days
Frequency of clot formation and intensity of leukocyte infiltration versus untreated recipients ([4]; p=0.034, in words): significantly lower
Islets entrapped in clots ([4]; treated mice, FIG. 9, in words): only a few islets
Infiltrating CD11b+ (MAC-1+) cells ([4]; treated mice, FIG. 11, in words): markedly fewer
Generation of C3a and sC5b-9 in human serum (complement system; 0.01 mg/ml): increased generation
Generation of C3a and sC5b-9 in human serum (complement system; 1 mg/ml): inhibitory effect
Generation of C3a ([5]; 0.01 mg/ml, FIG. 1, in words): significantly reduces
Coagulation activation products TAT, FXIa-AT and FXIIa-AT ([5]; 0.01 mg/ml, in words): suppressed
PAP ([5]; 0.01 mg/ml, in words): significantly suppressed
Generation of C3a and membrane attack complex sC5b-9 ([5]; 0.1 mg/ml and 1 mg/ml, FIGS. 1 and 2, in words): totally inhibits
C3a [5, 10]: 171.5 ± 72.4 ng/mL
FXIa-AT [5, 10]: 1.56 ± 0.82 µmol/L
Granulocytes (×10^9/l) [5, 10]: 3.23 ± 0.21 ×10^9/l
Lymphocytes (×10^9/l) [5, 10]: 1.94 ± 0.12 ×10^9/l
Monocytes (×10^9/l) [5, 10]: 0.38 ± 0.10 ×10^9/l
Platelets (×10^9/l) [5, 10]: 181.1 ± 16.3 ×10^9/l
TAT [5, 10]: 12.8 ± 4.9 µg/mL
sC5b-9 (AU/ml) [5, 10]: 41.6 ± 11.5 AU/ml
C3a [5, 11]: 630.6 ± 103.4 ng/mL
FXIIa-AT [5, 11]: 0.08 ± 0.02 µmol/L
FXIIa-C1 inh [5, 11]: 0.10 ± 0.03 µmol/mL
FXIa-AT [5, 11]: 0.13 ± 0.01 µmol/L
Granulocytes (×10^9/l) [5, 11]: 2.20 ± 0.40 ×10^9/l
Lymphocytes (×10^9/l) [5, 11]: 1.90 ± 0.11 ×10^9/l
Monocytes (×10^9/l) [5, 11]: 0.48 ± 0.10 ×10^9/l
PAP [5, 11]: 398.2 ± 60.7 ng/mL
Platelets (×10^9/l) [5, 11]: 108.2 ± 12.9 ×10^9/l
TAT [5, 11]: 645.3 ± 177.4 µg/mL
sC5b-9 (AU/ml) [5, 11]: 151.4 ± 27.9 AU/ml
C3a [5, 12]: 191.7 ± 36.6 ng/mL
FXIa-AT [5, 12]: 0.08 ± 0.01 µmol/L
Granulocytes (×10^9/l) [5, 12]: 2.80 ± 0.50 ×10^9/l
Lymphocytes (×10^9/l) [5, 12]: 1.91 ± 0.12 ×10^9/l
Monocytes (×10^9/l) [5, 12]: 0.40 ± 0.07 ×10^9/l
Platelets (×10^9/l) [5, 12]: 146.1 ± 8.1 ×10^9/l
TAT [5, 12]: 61.0 ± 8.6 µg/mL
sC5b-9 (AU/ml) [5, 12]: 61.9 ± 6.5 AU/ml
C3a [5, 13]: 215.6 ± 52.2 ng/mL
FXIa-AT [5, 13]: 1.17 ± 0.41 µmol/L
Granulocytes (×10^9/l) [5, 13]: 2.92 ± 0.37 ×10^9/l
Lymphocytes (×10^9/l) [5, 13]: 1.89 ± 0.10 ×10^9/l
Monocytes (×10^9/l) [5, 13]: 0.31 ± 0.05 ×10^9/l
Platelets (×10^9/l) [5, 13]: 162.3 ± 8.9 ×10^9/l
TAT [5, 13]: 15.0 ± 5.6 µg/mL
sC5b-9 (AU/ml) [5, 13]: 53.9 ± 7.1 AU/ml
Coagulation and complement activation ([5]; dose-dependent, in words): reduced
Blood cell consumption ([5]; in words): inhibited
Macroscopic clotting ([5]; in words): prevented
FXIIa-C1 INH ([5]; presence or absence of LMW-DS, in words): did not change
Number of infiltrating CD11b+ cells ([6]; 1 mg/ml, 60 min, FIG. 5, in words): decreased considerably
Clot formation around islets ([6]; 1 mg/ml, 60 min, in words): complete inhibition
Layer of platelets adhering to the islets ([6]; FIG. 7, in words): much thinner layer
Clot formation / clotting time versus no additives [7]: totally abrogated
Clotting time ([7]; experiment 1, 0.01 mg/ml): >60 min
Clotting time ([7]; experiment 1, 0.1 mg/ml): >60 min
Clotting time ([7]; experiment 2, 0.01 mg/ml): >60 min
Clotting time ([7]; experiment 2, 0.1 mg/ml): >60 min
Clotting time ([7]; experiment 3, 0.01 mg/ml): >60 min
Clotting time ([7]; experiment 3, 0.1 mg/ml): >60 min
Clotting time ([7]; experiment 4, 0.01 mg/ml): >60 min
Clotting time ([7]; experiment 4, 0.1 mg/ml): >60 min

Low molecular weight dextran [LMW-D, reference compound]
Effect on IBMIR ([5]; 1 mg/ml, 60 min API perfusion, in words): only a marginal effect
C3a [5, 10]: 1490.3 ± 406.4 ng/mL
FXIa-AT [5, 10]: 1.09 ± 0.08 µmol/L
Granulocytes (×10^9/l) [5, 10]: 1.90 ± 0.43 ×10^9/l
Lymphocytes (×10^9/l) [5, 10]: 2.14 ± 0.32 ×10^9/l
Monocytes (×10^9/l) [5, 10]: 0.29 ± 0.08 ×10^9/l
Platelets (×10^9/l) [5, 10]: 44.9 ± 18.7 ×10^9/l
TAT [5, 10]: 4429.2 ± 2002.5 µg/mL
sC5b-9 (AU/ml) [5, 10]: 157.3 ± 19.1 AU/ml
Clot formation / clotting time versus no additives [7]: extended the clotting time to only a minor degree
Clotting time ([7]; experiment 1, 0.01 mg/ml): 19.2 min
Clotting time ([7]; experiment 1, 0.1 mg/ml): 25.2 min
Clotting time ([7]; experiment 2, 0.01 mg/ml): 11.3 min
Clotting time ([7]; experiment 2, 0.1 mg/ml): 25.8 min

High molecular weight dextran sulfate [HMW-DS]
Clot formation / clotting time versus no additives [7]: inhibited clot formation only at 0.1 mg/ml
Clotting time ([7]; experiment 1, 0.01 mg/ml): 15.8 min
Clotting time ([7]; experiment 1, 0.1 mg/ml): >60 min
Clotting time ([7]; experiment 2, 0.01 mg/ml): 36.9 min
Clotting time ([7]; experiment 2, 0.1 mg/ml): >60 min
Clotting time ([7]; experiment 3, 0.01 mg/ml): 21.0 min
Clotting time ([7]; experiment 3, 0.1 mg/ml): >60 min
Clotting time ([7]; experiment 4, 0.01 mg/ml): 38.3 min
Clotting time ([7]; experiment 4, 0.1 mg/ml): >60 min

CMDB25 dextran sulfate
Complement activation and cytolytic complex deposition on the cells [8]: inhibited

high molecular weight dextran [HMW-D, reference compound]
Clot formation / clotting time versus no additives [7]: extended the clotting time to only a minor degree
Clotting time ([7]; experiment 1, 0.01 mg/ml): 19.8 min
Clotting time ([7]; experiment 1, 0.1 mg/ml): 14.2 min
Clotting time ([7]; experiment 2, 0.01 mg/ml): 13.8 min
Clotting time ([7]; experiment 2, 0.1 mg/ml): 33.2 min

Native dextran
Complement activation and cytolytic complex deposition on the cells [8]: no such an effect
